# pEC50, pIC50: −log10 of the molar value. “Also recorded” adds a separate entry of the source. Read-outs that look alike come from different tables or passages of the source.
# Experiments:
# [1] = at 20°C; no reference given; cited from earlier work
# 5 dpf larval zebrafish [2] = test system: 5 dpf larval zebrafish; set-up: method as in PMID 32978423; conditions: 5 dpf zebrafish, previously determined; read-out: EC50 for SM of the anesthetic; cited from earlier work
# [3] = HPLC concentration of volatile anesthetics in sealed glass 96-well plates over time; assay type: physicochemical; conditions: 3M 300LSE adhesive seal, 3-hour mark
# Procedure: Behavioral Experiments with Volatile Anesthetics. Solutions of inhaled volatile anesthetics were stored in glass vials with minimal head space and were transferred utilizing Hamilton gas-tight syringes to prevent evaporative loss. Isoflurane (Primal Care) was stored at 4°C, and sevoflurane (AbbVie Inc.) was stored at -20°C. Solutions were made in DMSO and then diluted in glass scintillation vials to the desired experimental concentrations in E3 (embryo water). Each vial contained 22 mL of E3 which minimized head space to prevent drug loss. Vials were sealed quickly after addition of volatile anesthetics to minimize loss. Solutions were mixed via vortexing, and anesthetics dissolved readily in the final DMSO concentration of 2%. […]
# have a significant change in zebrafish behavior. To assure consistent concentration of volatile anesthetic, this experiment was repeated without fish and concentrations were measured by HPLC. […]
# 1-Aminoanthracene Competition Fluorescence Assay. […] After filtration, the 1-AMA concentration was determined by UV−vis spectroscopy utilizing an experimentally determined extinction coefficient of 1-AMA (Σ368 = 4073 M−1 cm−1).4 Stock solutions of ligand were prepared in DMSO. […] The fluorescence curves were corrected by subtracting contributions from 1-AMA alone and HSAF alone. Fluorescence intensities at 515 nm were plotted as a percentage […]
# 5 dpf larval zebrafish [4] = test system: 5 dpf larval zebrafish; set-up: method as in PMID 32978423; conditions: 5 dpf zebrafish, previously determined; read-out: EC50 for EM of the anesthetic; cited from earlier work
# 5 dpf larval zebrafish [5] = experiment: Zebrafish behavioral model of anesthesia, elicited movement (EM, tap stimulus); assay type: in vivo; conditions: for Antagonism of propofol via EM: screen
# Procedure: (§1) Figure 2 Screening of PFAL compounds for antagonism of anesthesia. PFAL compounds were screened in 5 dpf zebrafish for their ability to antagonize the anesthetic effects of propofol (panels a, b, c and d) as well as sevoflurane and isoflurane (panels e and f). Each dot represents the data collected from one fish. Spontaneous movement (SM) is the distance of spontaneous swimming in a 4 min period, and elicited movement (EM) is distance moved in 1 s after exposure to a tap stimulus. Both measures were scaled to same-day DMSO controls. […] Mean and 95% CI are shown for each data set. Statistical comparison with both DMSO (D) only (black asterisks) and anesthetic control (Ctrl, gray asterisks) groups are shown. Note that each DMSO comparison is to the DMSO only control (sample on the furthest left of each graph, and the anesthetic control comparisons are made within each anesthetic grouping as indicated by the bars along the x-axis of each graph. ns: P > 0.05, *: P ≤ 0.05, **: P ≤ 0.01, ***: P ≤ 0.001, ****: P ≤ 0.0001).
# (§2) Behavioral experiments (screening, EC50 curves) were performed as previously reported. Antagonism after induction was conducted in a similar manner with different timepoints and solution changes as indicated. The DanioVision Observation Chamber (Noldus) and Ethovision XT16 software were used to track and record (1280 × 960 resolution at 25 frames per second) larval zebrafish (5 dpf) movement in glass 96-well plates (Zissner North America 3,600,500). All experiments were performed at 28 °C with the DanioVision Temperature Control Unit. Zebrafish were allowed to equilibrate in E3 and 2% DMSO (with or without drug) for 10 min before being placed in the observation chamber for 22 min of recording. Two different endpoints were used to assess depth of anesthesia: spontaneous movement (SM) and elicited movement (EM). In these measures, fish movement was considered to be non-anesthetized. During each observation, fish were given time to acclimate to the chamber, and minutes 15–19 of the recording were used for analysis of SM. An EM response using the Daniovision tapping device (8 out of 8 intensity, movement response measured for 1 s after stimulus) was also measured at the end of the SM observation period. All recordings were scrutinized by a blind observer for technical errors in tracking to ensure accuracy of zebrafish detection and inaccurate tracking was excluded from further analysis. Toxicity was measured in separate experiments by exposing larvae to compounds for 30 min, transferring to fresh E3, and then observing mortality after exposure. […]
# 5 dpf larval zebrafish [6] = experiment: Zebrafish behavioral model of anesthesia, spontaneous movement (SM); assay type: in vivo; conditions: for Antagonism of propofol via SM: screen; for Spontaneous movement (SM), compound alone: PFAL compound alone at 10 and 30 μM, versus DMSO control; for Antagonism of propofol via SM at 5 μM propofol: propofol 5 μM
# Procedure: as §1, §2
# [7] = biological target: T1, horse spleen apoferritin (HSAF) (Equus caballus, UniProt P02791); experiment: 1-Aminoanthracene (1-AMA) competition fluorescence assay; assay type: binding
# T1 construct: model protein HSAF (horse spleen apoferritin); purchased Sigma-Aldrich; host or cells: horse spleen (tissue-derived)
# T1 sequence (P02791 2-175 limits assumed): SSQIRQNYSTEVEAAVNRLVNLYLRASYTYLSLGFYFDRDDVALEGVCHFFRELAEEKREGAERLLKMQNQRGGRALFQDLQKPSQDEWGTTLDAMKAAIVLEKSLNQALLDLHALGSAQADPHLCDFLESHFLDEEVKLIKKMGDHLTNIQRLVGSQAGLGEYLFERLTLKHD
# 5 dpf zebrafish = experiment: Antagonism of anesthesia after induction (sequential addition); assay type: in vivo; conditions: propofol 3 μM for 10 min, then propofol 3 μM plus 30 μM compound
# Procedure: In the above studies, the anesthetic and PFAL compounds were co-administered to the fish simultaneously.
# Figure 5 Further Characterization of Propofol Antagonism with Compounds 9 and 10. a and b 5 dpf zebrafish (n = 36) were first anesthetized with 3 μM propofol and then 30 μM of either compound 9 or 10 was added. Between minutes 5 and 10 there is a small gap in the data during which the propofol solution was removed and a solution containing propofol and PFAL compound was added. […] The mean and 95% CI is shown for each data point in all panels.
# Behavioral experiments (screening, EC50 curves) were performed as previously reported. Antagonism after induction was conducted in a similar manner with different timepoints and solution changes as indicated. The DanioVision Observation Chamber (Noldus) and Ethovision XT16 software were used to track and record (1280 × 960 resolution at 25 frames per second) larval zebrafish (5 dpf) movement in glass 96-well plates (Zissner North America 3,600,500). […] An EM response using the Daniovision tapping device (8 out of 8 intensity, movement response measured for 1 s after stimulus) was also measured at the end of the SM observation period. […] Toxicity was measured in separate experiments by exposing larvae to compounds for 30 min, transferring to fresh E3, and then observing mortality after exposure.
# [8] = 30 μM PFAL compound co-administered with propofol (0.3, 1, 5 μM)
# [9] = 10 μM PFAL compound co-administered with propofol
smiles,measurement,setting,value
FC(F)OC(Cl)C(F)(F)F (centres unmarked) [Isoflurane],Vapor pressure,[1],238 mmHg
same,pEC50,5 dpf larval zebrafish [2],4.38
same,Concentration remaining in sealed glass 96-well plate,[3],96%
same,pEC50,5 dpf larval zebrafish [4],3.74
"CCc1ccc(CC)c(F)c1 [Compound 7, 1,4-diethyl-2-fluorobenzene]",Antagonism of propofol via EM,5 dpf larval zebrafish [5]; 30 μM PFAL compound co-administered with propofol,did not antagonize propofol
same,Antagonism of propofol via SM,5 dpf larval zebrafish [6]; [8],showed antagonism of propofol; also recorded: statistically significant antagonism
same,"Spontaneous movement (SM), compound alone",5 dpf larval zebrafish [6],increased SM
"CC(C)(C)c1ccc(C(C)(C)C)c(F)c1 [Compound 13, 1,4-ditertbutyl-2-fluorobenzene]","Log(IC50), displacement of 1-AMA from HSAF","[7]; Fig. 6a, nb = non-binding",nb
FCOC(C(F)(F)F)C(F)(F)F [Sevoflurane],Vapor pressure,[1],157 mmHg
same,pEC50,5 dpf larval zebrafish [2],4.12
same,Concentration remaining in sealed glass 96-well plate,[3],constant
same,pEC50,5 dpf larval zebrafish [4],3.62
"CC(C)(C)c1ccccc1F [Compound 11, 1-tertbutyl-2-fluorobenzene]",Antagonism of propofol via EM,5 dpf larval zebrafish [5]; [9],not to be statistically different than the propofol controls
"CC(C)c1ccc(C(C)C)c(F)c1 [Compound 10, 1,4-diisopropyl-2-fluorobenzene]","Elicited movement (EM), compound alone","5 dpf larval zebrafish [5]; PFAL compound alone at 10 and 30 μM, versus DMSO control",increased EM
same,Schild-type analysis with EM,"5 dpf larval zebrafish [5]; propofol EC50 curves (EM) at various concentrations of the compound, Fig. S6",no such relationship of antagonism was observed
same,Reversal of established propofol immobility,5 dpf zebrafish,rapid reversal of propofol immobility
same,Antagonism of propofol via SM,5 dpf larval zebrafish [6]; [9],demonstrated antagonism of propofol
same,Antagonism of propofol via SM at 1 μM propofol,"5 dpf larval zebrafish [6]; 10 μM PFAL compound, propofol 1 μM",able to antagonize propofol
same,Antagonism of propofol via SM at 5 μM propofol,5 dpf larval zebrafish [6]; 10 μM PFAL compound,did not show antagonism
same,Antagonism of propofol via SM,5 dpf larval zebrafish [6]; [8],showed antagonism of propofol; also recorded: statistically significant antagonism
same,Antagonism of propofol via SM at 5 μM propofol,5 dpf larval zebrafish [6]; 30 μM PFAL compound,antagonized propofol
same,pIC50,"5 dpf larval zebrafish [6]; Danio rerio, 120 h, 5 dpf zebrafish exposed to 3 μM propofol, Fig. 5d, read-out: IC50 (antagonism of propofol)",4.60
same,"Spontaneous movement (SM), compound alone",5 dpf larval zebrafish [6],increased SM
same,"Increase of propofol EC50 versus propofol alone, spontaneous movement","5 dpf larval zebrafish [6]; propofol plus 30 μM compound, Fig. 4a",~ fourfold
same,Inhibition of 1-AMA binding to HSAF,"[7]; 15 μM 1-AMA, 15 μM HSAF dimer, ligand 1 to 125 μM",most potent inhibitors of 1-AMA binding
same,Shape of IC50 curve for 1-AMA displacement,[7]; Fig. 6b,incomplete inhibition of 1-AMA binding
"C1CCc2nnnn2CC1 [Pentylenetetrazole, pentylenetetrazole, reference compound]",Pattern of movement,5 dpf larval zebrafish [6]; known epileptogenic comparator,uncontrolled movement (seizure)
"Cc1ccccc1F [Compound 2, 1-methyl-2-fluorobenzene]",Antagonism of propofol via EM,5 dpf larval zebrafish [5]; [9],not to be statistically different than the propofol controls
CC(C)c1cccc(C(C)C)c1O [Propofol],pEC50,"5 dpf larval zebrafish [5]; Danio rerio, propofol alone, Fig. 4b",5.45
same,pEC50,5 dpf larval zebrafish [2],7.00
same,pEC50,5 dpf larval zebrafish [4],5.42
same,pEC50,"5 dpf larval zebrafish [6]; Danio rerio, propofol alone, Fig. 4a",6.85
